IC50 and Activity data for 5 compounds are collected here from ChEMBL document CHEMBL1126535, “Angiotensin II receptor antagonists containing a phenylpyridine element” (Bioorg Med Chem Lett, 1993).

The target of test [1] is T1, Type-1 angiotensin II receptor (Oryctolagus cuniculus, UniProt P34976).
T1 sequence (P34976 whole entry): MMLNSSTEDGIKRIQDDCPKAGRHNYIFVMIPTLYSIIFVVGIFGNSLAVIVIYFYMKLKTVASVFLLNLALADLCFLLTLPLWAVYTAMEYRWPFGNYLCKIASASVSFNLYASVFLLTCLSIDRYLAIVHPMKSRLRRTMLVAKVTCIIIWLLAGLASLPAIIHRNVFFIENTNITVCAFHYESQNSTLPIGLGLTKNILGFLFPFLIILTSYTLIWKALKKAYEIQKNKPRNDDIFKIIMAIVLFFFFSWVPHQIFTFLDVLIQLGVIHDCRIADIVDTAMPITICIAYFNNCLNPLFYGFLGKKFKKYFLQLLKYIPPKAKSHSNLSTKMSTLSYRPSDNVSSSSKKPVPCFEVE
As to the kind of experiment: In vitro binding affinity towards Angiotensin II type 1-AT1 receptor determined as its ability to displace 125I-Sarl,Ile8-AII from the receptor expressed in rabbit aorta membrane. Format: cell membranes.

Test [2] concerns the target T2, Type-2 angiotensin II receptor (Rattus norvegicus, UniProt P35351).
T2 sequence (P35351 whole entry): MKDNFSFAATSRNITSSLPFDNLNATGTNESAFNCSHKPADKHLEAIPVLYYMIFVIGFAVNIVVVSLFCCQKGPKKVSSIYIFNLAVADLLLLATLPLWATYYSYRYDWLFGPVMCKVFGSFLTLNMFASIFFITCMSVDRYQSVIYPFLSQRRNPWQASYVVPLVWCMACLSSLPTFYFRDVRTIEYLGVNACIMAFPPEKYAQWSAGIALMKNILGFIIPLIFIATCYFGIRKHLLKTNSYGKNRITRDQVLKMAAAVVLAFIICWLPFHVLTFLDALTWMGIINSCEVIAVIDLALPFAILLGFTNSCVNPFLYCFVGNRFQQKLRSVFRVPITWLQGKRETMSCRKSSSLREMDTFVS
As to the kind of experiment: In vitro binding affinity towards Angiotensin II receptor, type 2 determined as its ability to displace 125I-Sarl,Ile8-AII from the receptor expressed in rat midbrain membrane. The format is cell membranes.

Test [3] deals with Rattus norvegicus. Put plainly: In vivo potency for the inhibition of pressor response in normotensive rats (i.v.). The format is functional.

The IC50 is the concentration that gives 50% inhibition. Read a low IC50 as greater potency in that assay. In turn, `CCCc1nc2c(C)ccnc2n1Cc1ccc(-c2ccccc2-c2nn[nH]n2)cc1` displayed an IC50 in test [1] of 1 nM.

In the case of `CCCc1nc2c(C)ccnc2n1Cc1ccc(-c2ncccc2-c2nn[nH]n2)cc1`, the half-maximal inhibitory concentration (IC50) in test [2] was > 20000 nM.

For the compound `CCCc1nc2c(C)ccnc2n1Cc1ccc(-c2ccncc2-c2nn[nH]n2)cc1`, the IC50 is 4 nM in test [1] and > 20000 nM in test [2]. Moreover, the Activity in test [3] amounted to 0.1 mg/kg.

For the compound `CCCc1nc2c(C)ccnc2n1Cc1ccc(-c2cccnc2-c2nn[nH]n2)cc1`, the IC50 in test [1] was 60 nM; in test [2] it was > 20000 nM.

For `CCc1nc2c(C)cc(C)nc2n1Cc1ccc(-c2ccccc2-c2nnn[nH]2)cc1` [L-158809], the IC50 in test [2] is > 20000 nM.
